The values below come from US8637568B2, “Serotonin reuptake inhibitors” (Theravance, Inc., priority 2010, dated 2014).

This assay has as its target T1, human recombinant SERT (HEK293-hSERT cells) (Homo sapiens, UniProt P31645).
T1 construct: expressed in transfected cells; host or cells: HEK293 (stably transfected), whole cells
The assay is described as follows: hSERT neurotransmitter uptake assay. It is filed as cell-based. To be noted: serotonin reuptake inhibition in HEK293-hSERT cells; for IC50: read-out: SERT pIC50 (converted). As to the method:
HEK293 cells stably-transfected with human recombinant SERT (HEK293-hSERT) were grown in Dulbecco's Modified Eagle's Medium supplemented with 10% dialyzed fetal bovine serum, 100 µg/ml penicillin, 100 µg/ml streptomycin, 2 mM L-glutamine, and 250 μg/ml of the aminoglycoside antibiotic G418. Cells were incubated in a 5% CO2, humidified incubator at 37° C.
In pre-incubation studies, test compound was added to cells for 30 minutes at 37° C. prior to the addition of fluorescent substrate. […] For real-time measurements, compounds were either preincubated (as above) or mixed with substrate prior to addition, and kinetic measurements, relative fluorescence units (RFU integrated over 0.5 ms),were made using a cycle time of 1 min.

T1 sequence (P31645 whole entry): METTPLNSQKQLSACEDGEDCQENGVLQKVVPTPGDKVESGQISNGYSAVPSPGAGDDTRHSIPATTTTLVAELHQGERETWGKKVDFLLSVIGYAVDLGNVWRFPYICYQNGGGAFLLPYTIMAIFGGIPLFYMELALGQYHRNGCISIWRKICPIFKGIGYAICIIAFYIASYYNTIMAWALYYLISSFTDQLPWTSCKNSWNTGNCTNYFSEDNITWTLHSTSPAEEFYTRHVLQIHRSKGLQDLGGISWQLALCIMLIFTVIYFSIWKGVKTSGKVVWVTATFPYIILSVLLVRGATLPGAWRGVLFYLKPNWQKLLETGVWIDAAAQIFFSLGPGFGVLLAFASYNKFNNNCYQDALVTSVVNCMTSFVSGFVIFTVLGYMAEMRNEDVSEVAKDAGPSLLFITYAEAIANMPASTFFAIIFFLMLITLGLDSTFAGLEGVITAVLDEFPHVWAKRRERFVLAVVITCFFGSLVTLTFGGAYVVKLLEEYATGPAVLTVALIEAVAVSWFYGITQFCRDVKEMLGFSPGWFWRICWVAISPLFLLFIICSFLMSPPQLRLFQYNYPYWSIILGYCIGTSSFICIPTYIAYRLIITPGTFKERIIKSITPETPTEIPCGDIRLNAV

Take `CS(=O)(=O)NC[C@@H](Oc1ccc(C(F)(F)F)cc1)[C@@H]1CCNC1` (stereo in doubt) [Example 3-2, N-[(R)-2-(S)-Pyrrolidin-3-yl-2-(4-trifluoromethylphenoxy)ethyl]-methanesulfonamide]: the IC50 was at most 100 nM.

As to `O=S(=O)(NC[C@@H](Oc1ccc(C(F)(F)F)cc1)[C@@H]1CCNC1)c1ccccc1` (stereo in doubt) [Example 3-18, N-[(R)-2-(S)-Pyrrolidin-3-yl-2-(4-trifluoromethylphenoxy)ethyl]benzenesulfonamide], the IC50 was at most 10 nM.

Take `CNS(=O)(=O)N(C)C[C@@H](Oc1ccc(C(F)(F)F)cc1)[C@H]1CCNC1` [Example 1]: the IC50 is at most 10 nM.

In the case of `O=S(=O)(NC[C@@H](Oc1ccc(C(F)(F)F)cc1)[C@H]1CCNC1)c1ccc(-c2cnco2)cc1` [Example 2, 4-Oxazol-5-yl-N—[(S)-2-(S)-pyrrolidin-3-yl-2-(4-trifluoromethylphenoxy)ethyl]benzenesulfonamide], the IC50 was at most 10 nM.

In the case of `CN(C[C@@H](Oc1ccc(C(F)(F)F)cc1)[C@H]1CCNC1)S(C)(=O)=O` [Example 3-3, N-Methyl-N-[(S)-2-(S)-pyrrolidin-3-yl-2-(4-trifluoromethylphenoxy)ethyl]-methanesulfonamide], the IC50 was at most 10 nM.

On to `CCS(=O)(=O)NC[C@@H](Oc1ccc(C(F)(F)F)cc1)[C@H]1CCNC1` [Example 3-5, Ethanesulfonic acid [(S)-2-(S)-pyrrolidin-3-yl-2-(4-trifluoromethylphenoxy)-ethyl]amide], for which the IC50 was at most 10 nM.

Take `CC(C)S(=O)(=O)NC[C@@H](Oc1ccc(C(F)(F)F)cc1)[C@H]1CCNC1` [Example 3-7, Propane-2-sulfonic acid [(S)-2-(S)-pyrrolidin-3-yl-2-(4-trifluoromethylphenoxy)ethyl]amide]: the IC50 is at most 100 nM.

On to `O=S(=O)(NC[C@@H](Oc1ccc(C(F)(F)F)cc1)[C@H]1CCNC1)C1CC1` [Example 3-8, Cyclopropanesulfonic acid [(S)-2-(S)-pyrrolidin-3-yl-2-(4-trifluoromethylphenoxy)ethyl]amide], for which the IC50 is at most 10 nM.

As to `NC(=O)NS(=O)(=O)NC[C@@H](Oc1ccc(C(F)(F)F)cc1)[C@H]1CCNC1` [Example 3-10, N[(S)-2-(S)-pyrrolidin-3-yl-2-(4-trifluoromethylphenoxy)ethyl]sulfonylurea], the “SERT pIC50” value is reported as “≧7.0”.

`CN(C)S(=O)(=O)NC[C@@H](Oc1ccc(C(F)(F)F)cc1)[C@H]1CCNC1` [Example 3-11]: the IC50 was at most 10 nM.

As to `CS(=O)(=O)CS(=O)(=O)NC[C@@H](Oc1ccc(C(F)(F)F)cc1)[C@H]1CCNC1` [Example 3-12, C-Methanesulfonyl-N-[(S)-2-(S)-pyrrolidin-3-yl-2-(4-trifluoromethylphenoxy)ethyl]methanesulfonamide], the IC50 was at most 10 nM.

Turning to `O=S(=O)(NC[C@@H](Oc1ccc(C(F)(F)F)cc1)[C@H]1CCNC1)c1cnc[nH]1` [Example 3-13, 3H-Imidazole-4-sulfonic acid [(S)-2-(S)-pyrrolidin-3-yl-2-(4-trifluoromethylphenoxy)ethyl]amide], the IC50 was at most 100 nM.

Consider `Cn1cncc1S(=O)(=O)NC[C@@H](Oc1ccc(C(F)(F)F)cc1)[C@H]1CCNC1` [Example 3-14, 3-Methyl-3H-imidazole-4-sulfonic acid [(S)-2-(S)-pyrrolidin-3-yl-2-(4-trifluoromethylphenoxy)ethyl]amide], for which the IC50 is at most 100 nM.

In the case of `O=S(=O)(NC[C@@H](Oc1ccc(C(F)(F)F)cc1)[C@H]1CCNC1)c1ncn[nH]1` [Example 3-15], the IC50 was at most 100 nM.

Take `O=S(=O)(NC[C@@H](Oc1ccc(C(F)(F)F)cc1)[C@H]1CCNC1)c1cccc2nonc12` [Example 3-16, Benzo[1,2,5]oxadiazole-4-sulfonic acid [(S)-2-(S)-pyrrolidin-3-yl-2-(4-trifluoromethylphenoxy)ethyl]amide]: the IC50 was at most 10 nM.

For the compound `O=S(=O)(NC[C@@H](Oc1ccc(C(F)(F)F)cc1)[C@H]1CCNC1)N1CCOCC1` [Example 3-17, Morpholine-4-sulfonic acid [(S)-2-(S)-pyrrolidin-3-yl-2-(4-trifluoromethylphenoxy)ethyl]amide], the IC50 is at most 10 nM.

Turning to `O=S(=O)(NC[C@@H](Oc1ccc(C(F)(F)F)cc1)[C@H]1CCNC1)c1ccccc1` [Example 3-19, N-[(S)-2-(S)-Pyrrolidin-3-yl-2-(4-trifluoromethylphenoxy)ethyl]benzenesulfonamide], the IC50 was at most 10 nM.

As to `N#Cc1ccc(S(=O)(=O)NC[C@@H](Oc2ccc(C(F)(F)F)cc2)[C@H]2CCNC2)cc1` [Example 3-20, 4-Cyano-N-[(S)-2-(S)-pyrrolidin-3-yl-2-(4-trifluoromethylphenoxy)ethyl]benzenesulfonamide], the IC50 was at most 10 nM.

Take `O=[N+]([O-])c1ccc(S(=O)(=O)NC[C@@H](Oc2ccc(C(F)(F)F)cc2)[C@H]2CCNC2)cc1` [Example 3-22, 4-Nitro-N-[(S)-2-(S)-pyrrolidin-3-yl-2-(4-trifluoromethylphenoxy)ethyl]benzenesulfonamide]: the IC50 was at most 10 nM.

Take `COc1ccc(S(=O)(=O)NCC(Oc2ccc(C(F)(F)F)cc2)C2CCNC2)cc1` [Example 3-23, 4-Methoxy-N-[(S)-2-(S)-pyrrolidin-3-yl-2-(4-trifluoromethylphenoxy)ethyl]bensenesulfonamide]: the IC50 is at most 10 nM.

With `COCCc1ccc(S(=O)(=O)NC[C@@H](Oc2ccc(C(F)(F)F)cc2)[C@H]2CCNC2)cc1` [Example 3-24, 4-(2-Methoxyethyl)-N-[(S)-2-(S)-pyrrolidin-3-yl-2-(4-trifluoromethylphenoxy)ethyl]benzenesulfonamide], the IC50 is at most 10 nM.

As to `CNC(=O)c1cccc(S(=O)(=O)NCC(Oc2ccc(C(F)(F)F)cc2)C2CCNC2)c1` [Example 3-25, N-Methyl-3-[(S)-2-(S)--pyrrolidin-3-yl-2-(4-trifluoromethylphenoxy)ethylsulfamoyl]benamide], the IC50 is at most 10 nM.

In the case of `CC(=O)Nc1cccc(S(=O)(=O)NC[C@@H](Oc2ccc(C(F)(F)F)cc2)[C@H]2CCNC2)c1` [Example 3-26, N-{3-[(S)-2-(S)-Pyrrolidin-3-yl-2-(4-trifluoromethylphenoxy)ethylsulfamoyl]phenyl}acetamide], the IC50 was at most 10 nM.

On to `CS(=O)(=O)c1ccc(S(=O)(=O)NC[C@@H](Oc2ccc(C(F)(F)F)cc2)[C@H]2CCNC2)cc1` [Example 3-27, 4-Methanesulfonyl-N-[(S)-2-(S)-pyrrolidin-3-yl-2-(4-trifluoromethylphenoxy)ethyl]benzenesulfonamide], for which the IC50 was at most 10 nM.

Turning to `CS(=O)(=O)c1cccc(S(=O)(=O)NC[C@@H](Oc2ccc(C(F)(F)F)cc2)[C@H]2CCNC2)c1` [Example 3-28, 3-Methanesulfonyl-N-[(S)-2-(S)-pyrrolidin-3-yl-2-(4-trifluoromethylphenoxy)ethyl]benzenesulfonamide], the IC50 was at most 100 nM.

`CS(=O)(=O)c1ccccc1S(=O)(=O)NC[C@@H](Oc1ccc(C(F)(F)F)cc1)[C@H]1CCNC1` [Example 3-29, 2-Methanesulfonyl-N-[(S)-2-(S)-pyrrolidin-3-yl-2-(4-trifluoromethylphenoxy)ethyl]benzenesulfonamide]: the IC50 is at most 10 nM.

For `NS(=O)(=O)c1ccc(S(=O)(=O)NCC(Oc2ccc(C(F)(F)F)cc2)C2CCNC2)cc1` [Example 3-30, Benzene-1,4-disulfonic acid lamide 4-{[(S)-2-(S)-pyrrolidin-3-yl-2-(4-trifluoromethylphenoxy)ethyl]amide}], the IC50 was at most 10 nM.

As to `CNS(=O)(=O)c1ccc(S(=O)(=O)NCC(Oc2ccc(C(F)(F)F)cc2)C2CCNC2)cc1` [Example 3-31, Benzene-1,4-disulfonic acid 1-methylamide 4-{[(S)-2-(S)-pyrrolidin-3-yl-2-(4-trifluoromethylphenoxy)ethyl]amide}], the IC50 was at most 10 nM.

With `O=S(=O)(NC[C@@H](Oc1ccc(C(F)(F)F)cc1)[C@H]1CCNC1)c1ccc(-n2cccn2)cc1` [Example 3-32, 4-Pyrazol-1-yl-N-[(S)-2-(S)-pyrrolidin-3-yl-2-(4-trifluoromethylphenoxy)ethyl]benzenesulfonamide], the IC50 was at most 10 nM.

As for `Cc1cc(C)n(-c2ccc(S(=O)(=O)NCC(Oc3ccc(C(F)(F)F)cc3)C3CCNC3)cc2)n1` [Example 3-33, 4-(3,5-Dimethyl-pyrazol-1-yl)-N-(S)-2-(S)-pyrrolidin-3-yl-2-(4-trifluoromethylphenoxy)ethyl]benzenesulfonamide], the IC50 was at most 10 nM.

With `O=S(=O)(NC[C@@H](Oc1ccc(C(F)(F)F)cc1)[C@H]1CCNC1)c1ccc(-c2ncccn2)cc1` [Example 3-34, 4-Pyrimidin-2-yl-N-[(S)-2-(S)-pyrrolidin-3-yl-2-(4-trifluoromethylphenoxy)ethyl]benzenesulfonamide], the IC50 is at most 10 nM.

As for `O=S(=O)(NCC(Oc1ccc(C(F)(F)F)cc1)C1CCNC1)c1ccc(-c2nnn[nH]2)cc1` [Example 3-35, N[(S)-2-(S)-Pyrrolidin-3-yl-2-(4-trifluoromethylphenoxy)ethyl]-4-(1H-tetrazol-5-yl)-benzenesulfonamide], the IC50 was at most 100 nM.

Turning to `NS(=O)(=O)C[C@@H](Oc1ccc(C(F)(F)F)cc1)[C@H]1CCNC1` [Example 4, (S)-2-(S)-Pyrrolidin-3-yl-2-(4-trifluoromethylphenoxy)ethanesulfonic Acid Amide], the IC50 is at most 10 nM.

As for `O=S(=O)(C[C@@H](Oc1ccc(C(F)(F)F)cc1)[C@H]1CCNC1)NCc1ccccc1` [Example 5, (S)-2-(S)-Pyrrolidin-3-yl-2-(4-trifluoromethylphenoxy)ethanesulfonic Acid Benzylamide], the IC50 was at most 10 nM.
